From patent US4288609A, “Quaternary ammonium derivatives of adamantane with antimicrobic activity” (priority 1976, dated 1981)
Read-outs that look alike come from different tables or passages of the source.

What was measured:
[1] = test system: Proteus Vulc. ATCC 881; assay: M.I.C. in vitro, gram- Proteus Vulc. (Table 1); format: cell-based
Method: (§1) The method for evaluating the activity in vitro against bacteria, fungi and protozoa consists in introducing calculated quantities of the substance, the activity of which it is desired to test, into culture media already inoculated with a predetermined number of test germs.
(§2) After 24 or 48 hours of incubation at 30° or 37° C., according to the micro-organism being tested, it is possible to evaluate the growth of the same in the culture broth; in this manner the minimum concentration (M.I.C.) which inhibits the growth of the micro-organisms in vitro is determined.
(§3) In table 1 there are recorded the M.I.C. values in γ/ml of the products subject of the present invention, against certain gram+ and gram- bacterial strains, some of which are pathogenic towards human beings.

[2] = test system: Trichophyton Mentagrophytes; assay: Topical activity upon dermatophytis from Trichophyton in cavies (Table 6); format: in vivo, Albino cavies
Method: Albino cavies of 250-300 g are infected, after depilation and scarification of a circular area of dorsal skin upon which there are supplied 0.1 ml of a suspension of microconidia of Trichophyton Mentagrophytes from the Pasteur Institute collection, obtained from a culture of 15 days upon Saboureaud agar. 24 Hours after infection topical treatment is started and is continued for two weeks (once per day).
The compounds to be tested are dissolved or suspended at the desired concentration, in a water-alcohol mixture (75/25 v/v) containing 0.75% by weight of carboxymethyl-cellulose (CMC). […] Each single application is carried out using 0.25 ml of the suspension or solution obtained as described above.
Fourteen days after infection the lesions are assessed. Assessment is carried out by attributing index numbers depending upon the seriousness of the lesions formed, as follows:
The substances under examination were tested at concentrations of 5 and 2.5% by weight.

[3] = test system: Pseudom.Aer. ATCC 1014; assay: M.I.C. in vitro, gram- Pseudom. Aer. (Table 1); format: cell-based, Pseudomonas Aeruginosa; conditions: Pseudomonas aeruginosa
Method: as §1, §2, §3

[4] = test system: Staphylococcus Aureus Tour; assay: Speed of sterilising action, Staphylococcus Aureus (Table 3); format: cell-based
Method: (§4) The strains, inoculants, culture broths and experimental methods are as already seen for calculating the M.I.C. in vitro. The antimicrobic substances were tested at concentrations of 0.1, 0.25, 0.5 and 1 g/l, the contact times taken into consideration are 0, 1, 2.5, 5, 7.5, 10, 15, 30 and 60 minutes.
(§5) The samples which at the 7th day of incubation still had no growth of micro-organisms which could be observed macroscopically and/or microscopically were considered sterile.
(§6) The results are recorded in Table 3 in terms of sterilization time expressed in minutes.

[5] = test system: Trichophyton Mentagrophytes Ist. Pasteur; assay: Speed of sterilising action, Trichophyton Mentagrophytes (Table 3); format: cell-based
Method: as §4, §5, §6

[6] = test system: Escherichia Coli SKF 12140; assay: Speed of sterilising action, Escherichia Coli (Table 3); format: cell-based
Method: as §4, §5, §6

[7] = test system: Candida Albicans SKF 2270; assay: Speed of sterilising action, Candida Albicans (Table 3); format: cell-based
Method: as §4, §5, §6

[8] = test system: Staph.Aureus Tour; assay: M.I.C. in vitro, gram+ Staph. Aureus (Table 1); format: cell-based, Staphylococcus Aureus; conditions: Staphylococcus aureus
Method: as §1, §2, §3

[9] = test system: Pseudomonas Aeruginosa; assay: Antibacterial activity in vivo with topical treatment (Table 5); set-up: species or system female CF1 albino mice; conditions: for animals alive on the 15th day / animals dead on the 15th day: 10 animals; for % survivors: topical, 15th day
Method: After their backs have been shaved, female CF1 albino mice weighing 18-22 g are scorched (under ether anaesthetic) for 15 seconds with a pad of brass previously immersed in boiling water (7-8% of the body surface). After 90 minutes there is applied to the scorched area 0.1 ml of a suspension of Pseudomonas Aeruginosa bacteria having 15% transmittance at 650 nm. The bacterial strain in question produces a high incidence of mortality, induced by septicemic diffusion from the point of infection. After 90 minutes, with the aid of a glass rod suitably flattened at one end, the preparation containing a known concentration of the compound under examination is applied locally. The treatment is continued for a total of six days (once per day). On the fifteenth day the percentage of survivors to the tested doses in recorded.
The carrier used for applying the compounds under examination is an aqueous 0.75% solution of carboxymethyl-cellulose. The concentrations of the compounds tested are 2, 1, 0.5 and 0.25% by weight.

[10] = test system: Diplococcus Pneum. ISM; assay: M.I.C. in vitro, gram+ Diplococcus Pneum. (Table 1); format: cell-based
Method: as §1, §2, §3

[11] = test system: Trichomonas Vaginalis ISM 66/22; assay: Speed of sterilising action, Trichomonas Vaginalis (Table 3); format: cell-based
Method: as §4, §5, §6

[12] = test system: Klens. Pneum. ISM; assay: M.I.C. in vitro, gram- Klens. Pneum. (Table 1); format: cell-based
Method: as §1, §2, §3

[13] = test system: Candida albicans; assay: Activity upon vaginal candidiasis in mice (Table 7); format: in vivo, female Swiss mice (Charles River CD1); conditions: for no. of animals surviving: 8 animals
Method: The treatment groups consist each of 8 female Swiss mice (Charles River CD1) of average weight 20 g. The animals are infected with 0.025 ml of a 24 hour culture of Candida albicans, equal to 10^6 cellules.
0.025 ml of a suspension in lanoline of the compound to be tested, at the desired concentration, are applied locally twice a day for a week, the first treatment being started five hours after infection.
The control group is treated with the lanoline alone in the same way. On the eighth day vaginal washings are carried out with 0.025 ml of sterile physiological solution, and the liquid is sown in Petri dishes containing Bacto Biggy Agon Difco as a selective growing medium for the Candida.
After 48 hours of incubation of the dishes at 30° C. a count is taken of the colonies which have grown. Assessment of the activity is quantized using the indices listed here below:
The results are expressed as percentages of the average index of seriousness of the infection A.D.I. (Average Degree of Infection) in the animals treated with respect to the animals in the control group.
The substances under examination were tested at concentrations of 5 and 3% by weight.

[14] = test system: Esch. Coli. SKF 12140; assay: M.I.C. in vitro, gram- Esch. Coli (Table 1); format: cell-based, Escherichia Coli; conditions: Escherichia coli
Method: as §1, §2, §3

[15] = Acute oral toxicity in mice (Table 4); conditions: mouse, in vivo, po
Method: The substances were administered orally to groups of 10 female mice CF1 of average weight of about 20 grams, in aqueous solution and in such way that the total volume administered would be in each case 1 ml/100 g of weight.

[16] = test system: Streptococ. Henclyt. 0203; assay: M.I.C. in vitro, gram+ Streptococ. Henclyt. (Table 1); format: cell-based
Method: as §1, §2, §3

[17] = test system: Trich. Vaginalis ISM 66/22; assay: MIC protozoa, Trichomonas vaginalis (Table 2); format: cell-based; conditions: Trichomonas vaginalis, +10% serum (head); Kupferberg Trichomonas broth with 5% of horse serum; read-out: MIC
Method: as §1, §2
(§7) Inoculation with Trichomonas vaginalis and Trichomonas foetus, obtained from cultures transplanted every other day to make them lively, was effected in a ratio of 3.5% of the volume of medium used.
(§8) For the fungi Sabourand broth was used as a culture medium, whilst for the protozoa Kupferberg Trichomonas broth with 5% of horse serum was used.

[18] = test system: Trich. Foetus ISM 66/23; assay: MIC protozoa, Trichomonas foetus (Table 2); format: cell-based; conditions: Tritrichomonas foetus, +10% serum (head); Kupferberg Trichomonas broth with 5% of horse serum; read-out: MIC
Method: as §1, §2, §7, §8

[19] = test system: Candida Albic. SKF 2270; assay: MIC yeasts, Candida albicans (Table 2); format: cell-based; conditions: Candida, Sabourand broth, read-out: MIC
Method: as §1, §2
(§9) Inoculation with Candida albicans or Candida pseudotropicalis was made by diluting cultures grown for 24 h at 30° C. (cellular density inoculated 10^3 /ml).
as §8

[20] = test system: Nicrosporum Canis ATCC 11621; assay: MIC mildews, Microsporum canis (Table 2); format: cell-based; conditions: Microsporum canis, Sabourand broth, read-out: MIC
Method: as §1, §2
(§10) Inoculation with Trichophyton mentagrophytes and Microsporum canis was effected in a ratio of 1% of the volume of medium used.
as §8

[21] = test system: Trych. Mentagr. 1st.Pastuer; assay: MIC mildews, Trichophyton mentagrophytes (Table 2); format: cell-based; conditions: Trichophyton mentagrophytes, Sabourand broth, read-out: MIC
Method: as §1, §2, §10, §8

[22] = test system: Candida Pseudotrop. ATCC 2512; assay: MIC yeasts, Candida pseudotropicalis (Table 2); format: cell-based; conditions: Candida, Sabourand broth, read-out: MIC
Method: as §1, §2, §9, §8

[23] = without serum, read-out: M.I.C.

Compound: CCCCCCCCCCCCCCCC[n+]1ccccc1 [Cetyl pyridine chloride, cetyl pyridine chloride, reference compound]
- MIC ([1]; +10% serum): > 100 µg/mL
- MIC ([1]; without serum): 20 µg/mL
- A.D.I. (% of control group) ([2]; 2.5% by weight): 81.27%
- healing % (100-A.D.I. %) ([2]; 2.5% by weight): 18.73%
- A.D.I. (% of control group) ([2]; 5% by weight): 49.81%
- healing % (100-A.D.I. %) ([2]; 5% by weight): 50.19%
- evaluation of seriousness of infection (A.D.I.) ([2]; 5% by weight, average index): 1.33
- MIC ([3]; ATCC1014, +10% serum): > 200 µg/mL
- MIC ([3]; ATCC1014, without serum): 200 µg/mL
- sterilization time ([4]; 0.1 g/l): 7.5 min
- sterilization time ([4]; 0.25 g/l): 2.5 min
- sterilization time ([4]; 0.5 g/l): 1 min
- sterilization time ([4]; 1 g/l): 1 min
- sterilization time ([5]; 0.1 g/l): 60 min
- sterilization time ([5]; 0.25 g/l): 60 min
- sterilization time ([5]; 0.5 g/l): 30 min
- sterilization time ([5]; 1 g/l): 5 min
- sterilization time ([6]; 0.1 g/l): > 60 min
- sterilization time ([6]; 0.25 g/l): > 60 min
- sterilization time ([6]; 0.5 g/l): > 60 min
- sterilization time ([6]; 1 g/l): > 60 min
- sterilization time ([7]; 0.1 g/l): 60 min
- sterilization time ([7]; 0.25 g/l): 10 min
- sterilization time ([7]; 0.5 g/l): 10 min
- sterilization time ([7]; 1 g/l): 10 min
- MIC ([8]; +10% serum): 10 µg/mL
- MIC ([8]; without serum): 0.1 µg/mL
- animals alive on the 15th day ([9]; 0.25% by weight): 1
- animals dead on the 15th day ([9]; 0.25% by weight): 9
- % survivors ([9]; 0.25% by weight): 10%
- animals alive on the 15th day ([9]; 0.5% by weight): 3
- animals dead on the 15th day ([9]; 0.5% by weight): 7
- % survivors ([9]; 0.5% by weight): 30%
- animals alive on the 15th day ([9]; 1% by weight): 2
- animals dead on the 15th day ([9]; 1% by weight): 8
- % survivors ([9]; 1% by weight): 20%
- animals alive on the 15th day ([9]; 2% by weight): 4
- animals dead on the 15th day ([9]; 2% by weight): 6
- % survivors ([9]; 2% by weight): 40%
- MIC ([10]; +10% serum): 10 µg/mL
- MIC ([10]; without serum): 1 µg/mL
- sterilization time ([11]; 0.1 g/l): 5 min
- sterilization time ([11]; 0.25 g/l): 2.5 min
- sterilization time ([11]; 0.5 g/l): 1 min
- sterilization time ([11]; 1 g/l): 1 min
- MIC ([12]; +10% serum): > 100 µg/mL
- MIC ([12]; without serum): 5 µg/mL
- % of healing (100-A.D.I. %) ([13]; 3% by weight): 15.97%
- A.D.I. (compared with controls) ([13]; 3% by weight): 84.03%
- no. of animals surviving ([13]; 3% by weight): 6
- no. of animals surviving ([13]; 5% by weight): 2
- death of treated animals ([13]; highest dose, before the end of the experiment): 75%
- mortality ([13]; lower dose): 25%
- MIC ([14]; +10% serum): > 100 µg/mL
- MIC ([14]; without serum): 5 µg/mL
- LD50 at 336 h [15]: 275 mg/kg
- MIC ([16]; +10% serum): 5 µg/mL
- MIC ([16]; without serum): 0.5 µg/mL

Compound: CCCCCCCCCCC[N+](C)(C)CCOC(=O)C12CC3CC(CC(C3)C1)C2 [Example 3]
- MIC ([1]; +10% serum, read-out: M.I.C.): 100 µg/mL
- MIC [1, 23]: 5 µg/mL
- MIC ([3]; ATCC1014, +10% serum, read-out: M.I.C.): 100 µg/mL
- MIC ([3]; ATCC1014, without serum, read-out: M.I.C.): 20 µg/mL
- MIC [17]: 5 µg/mL
- MIC ([8]; +10% serum, read-out: M.I.C.): 5 µg/mL
- MIC [8, 23]: < 0.1 µg/mL
- MIC [18]: 5 µg/mL
- MIC ([10]; +10% serum, read-out: M.I.C.): 5 µg/mL
- MIC [10, 23]: 0.5 µg/mL
- MIC ([19]; +10% serum): 20 µg/mL
- MIC ([19]; without serum): 0.5 µg/mL
- MIC ([12]; +10% serum, read-out: M.I.C.): 100 µg/mL
- MIC [12, 23]: 5 µg/mL
- MIC ([20]; ATCC11621, +10% serum): 10 µg/mL
- MIC ([20]; ATCC11621, without serum): < 0.1 µg/mL
- MIC ([14]; +10% serum, read-out: M.I.C.): 100 µg/mL
- MIC [14, 23]: 2 µg/mL
- MIC ([21]; +10% serum): 10 µg/mL
- MIC ([21]; without serum): 0.1 µg/mL
- LD50 at 336 h ([15]; LD50, oral, mice, 14 days): 745 mg/kg
- MIC ([16]; +10% serum, read-out: M.I.C.): 9.2 µg/mL
- MIC [16, 23]: < 0.1 µg/mL
- MIC ([22]; ATCC2512, +10% serum): 50 µg/mL
- MIC ([22]; ATCC2512, without serum): < 0.1 µg/mL
